# Test results from ChEMBL document CHEMBL1201862, “PubChem BioAssay data set” (2004).
# The source made the active and inactive calls.
# Tests used:
# [1] = cells; format: functional, cell-based
# [2] = biological target: T1, Fatty acid synthase (Homo sapiens, UniProt P49327); experiment: inhibition of human FAS-TE enzyme activity – biochemical, kinetic fluorescence intensity, dose response (AID 624326); format: functional;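 also: rate of fluorescence rise from hydrolysis of a fluorogenic O-methyl fluorescein ester substrate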
# T1 sequence (P49327 whole entry): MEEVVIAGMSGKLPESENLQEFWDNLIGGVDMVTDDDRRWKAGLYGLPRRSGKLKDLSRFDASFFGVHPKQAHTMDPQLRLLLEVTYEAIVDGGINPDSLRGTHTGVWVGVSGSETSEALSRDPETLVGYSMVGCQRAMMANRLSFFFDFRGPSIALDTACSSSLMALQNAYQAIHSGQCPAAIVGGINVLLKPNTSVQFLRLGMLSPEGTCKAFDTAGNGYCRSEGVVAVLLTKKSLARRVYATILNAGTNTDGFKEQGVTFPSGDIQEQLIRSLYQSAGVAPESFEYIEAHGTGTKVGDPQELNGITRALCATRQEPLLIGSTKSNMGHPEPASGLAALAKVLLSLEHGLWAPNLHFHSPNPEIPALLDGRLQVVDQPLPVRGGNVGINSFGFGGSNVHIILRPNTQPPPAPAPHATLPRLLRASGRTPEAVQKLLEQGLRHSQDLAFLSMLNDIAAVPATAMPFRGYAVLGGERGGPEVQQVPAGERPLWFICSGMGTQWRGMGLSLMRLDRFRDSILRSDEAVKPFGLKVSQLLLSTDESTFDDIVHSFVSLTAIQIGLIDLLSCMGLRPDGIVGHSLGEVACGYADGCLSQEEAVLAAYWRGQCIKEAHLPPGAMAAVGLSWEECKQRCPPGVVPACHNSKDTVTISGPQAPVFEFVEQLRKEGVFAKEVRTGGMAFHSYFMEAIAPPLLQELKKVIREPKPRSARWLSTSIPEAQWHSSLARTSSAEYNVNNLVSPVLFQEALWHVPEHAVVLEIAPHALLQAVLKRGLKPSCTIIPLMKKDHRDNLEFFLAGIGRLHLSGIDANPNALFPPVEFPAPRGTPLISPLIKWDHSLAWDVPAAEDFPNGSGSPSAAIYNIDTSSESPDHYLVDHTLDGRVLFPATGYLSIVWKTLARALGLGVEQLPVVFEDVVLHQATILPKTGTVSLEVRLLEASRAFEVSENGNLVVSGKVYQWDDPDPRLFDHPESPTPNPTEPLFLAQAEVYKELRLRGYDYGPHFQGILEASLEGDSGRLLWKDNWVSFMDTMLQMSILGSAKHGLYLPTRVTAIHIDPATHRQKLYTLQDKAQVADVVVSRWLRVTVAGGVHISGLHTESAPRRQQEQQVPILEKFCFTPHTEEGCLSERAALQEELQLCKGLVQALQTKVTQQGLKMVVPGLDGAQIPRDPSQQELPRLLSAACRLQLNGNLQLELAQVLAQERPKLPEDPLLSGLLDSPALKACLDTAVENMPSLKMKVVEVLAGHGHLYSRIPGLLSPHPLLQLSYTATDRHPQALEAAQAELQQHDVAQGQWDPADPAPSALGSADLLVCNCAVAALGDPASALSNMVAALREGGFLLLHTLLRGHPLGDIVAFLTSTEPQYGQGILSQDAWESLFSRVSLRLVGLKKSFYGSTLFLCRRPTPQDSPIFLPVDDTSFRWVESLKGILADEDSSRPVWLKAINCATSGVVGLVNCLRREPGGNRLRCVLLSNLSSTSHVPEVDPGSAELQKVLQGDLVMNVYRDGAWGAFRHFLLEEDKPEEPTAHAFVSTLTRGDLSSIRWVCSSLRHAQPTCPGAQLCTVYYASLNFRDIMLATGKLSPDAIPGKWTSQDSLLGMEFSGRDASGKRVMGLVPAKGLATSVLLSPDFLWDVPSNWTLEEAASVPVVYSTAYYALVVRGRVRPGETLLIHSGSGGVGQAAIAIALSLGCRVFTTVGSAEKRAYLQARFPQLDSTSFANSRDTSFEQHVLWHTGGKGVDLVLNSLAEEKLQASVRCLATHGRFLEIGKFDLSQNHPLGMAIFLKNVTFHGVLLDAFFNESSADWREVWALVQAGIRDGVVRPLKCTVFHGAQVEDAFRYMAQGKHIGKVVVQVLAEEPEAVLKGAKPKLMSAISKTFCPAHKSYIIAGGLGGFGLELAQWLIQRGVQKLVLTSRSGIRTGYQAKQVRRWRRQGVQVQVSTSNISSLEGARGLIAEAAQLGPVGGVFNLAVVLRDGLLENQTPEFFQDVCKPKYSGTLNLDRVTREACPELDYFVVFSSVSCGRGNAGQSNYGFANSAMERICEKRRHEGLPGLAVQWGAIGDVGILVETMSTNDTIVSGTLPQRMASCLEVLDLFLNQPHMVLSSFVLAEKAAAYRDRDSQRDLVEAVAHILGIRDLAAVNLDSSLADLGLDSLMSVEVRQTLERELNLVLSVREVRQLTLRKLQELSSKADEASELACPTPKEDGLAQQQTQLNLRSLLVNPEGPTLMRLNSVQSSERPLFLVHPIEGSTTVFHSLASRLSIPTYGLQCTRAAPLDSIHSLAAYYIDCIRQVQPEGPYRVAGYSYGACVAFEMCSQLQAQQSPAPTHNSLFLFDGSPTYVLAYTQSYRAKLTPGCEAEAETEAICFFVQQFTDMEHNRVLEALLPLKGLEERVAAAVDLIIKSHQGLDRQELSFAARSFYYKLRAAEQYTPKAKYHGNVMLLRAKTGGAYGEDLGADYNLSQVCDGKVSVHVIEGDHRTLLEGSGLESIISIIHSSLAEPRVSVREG
# [3] = biological target: Paired box protein Pax-8 (Homo sapiens, UniProt Q06710); experiment: PAX8 transcriptional activity inhibition in RMG-I – RMG-I cells, luciferase, cherry-pick, dose response (AID 687027); format: functional, cell-based;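 also: luciferase reporter driven by Pax8 target thyroperoxidase promoter measured by SteadyGlo luminescence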
# Chain of Paired box protein Pax-8 (Q06710 whole entry): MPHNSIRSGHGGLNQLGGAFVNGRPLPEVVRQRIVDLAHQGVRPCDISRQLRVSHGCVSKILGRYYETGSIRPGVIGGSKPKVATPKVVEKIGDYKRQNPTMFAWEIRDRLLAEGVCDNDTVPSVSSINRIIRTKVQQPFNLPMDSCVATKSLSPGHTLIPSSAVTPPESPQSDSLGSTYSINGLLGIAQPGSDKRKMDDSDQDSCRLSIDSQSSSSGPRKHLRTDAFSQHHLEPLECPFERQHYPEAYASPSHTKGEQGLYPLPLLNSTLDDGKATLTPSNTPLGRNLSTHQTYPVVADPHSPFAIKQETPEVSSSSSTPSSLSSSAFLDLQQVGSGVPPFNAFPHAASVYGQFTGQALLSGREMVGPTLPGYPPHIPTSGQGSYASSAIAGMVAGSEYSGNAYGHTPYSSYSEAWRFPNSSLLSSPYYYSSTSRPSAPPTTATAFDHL
# [4] = luciferase reporter signal suppression in cells – H4 neuroglioma cells, luminescence, dose response (AID 1990); format: functional, cell-based
# [5] = Luminescence Cell-Based Dose Response HTS to Identify Inhibitors of 5'UTR Stem-Loop Driven Prion Protein mRNA Translation in H4 Neuroglioblastoma Cells. [Related pubchem assays: 1827 (Project Summary), 1813 (Primary HTS)]; format: functional
# [6] = biological target: T1, Fatty acid synthase; experiment: inhibition of human FAS-TE enzyme activity – biochemical, endpoint fluorescence intensity, uHTS hits, dose response (AID 624327); format: functional;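 also: fluorescence from hydrolysis of an O-methyl fluorescein acyl ester substrate by the enzyme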
# [7] = biological target: Photoreceptor-specific nuclear receptor (Homo sapiens, UniProt Q9Y5X4); format: functional, cell-based;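 also: CHO-S cells with Gal4-NCOR and VP16-NR2E3 two-hybrid luciferase reporter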
# Chain of Photoreceptor-specific nuclear receptor (Q9Y5X4 whole entry, the tested form may be a part): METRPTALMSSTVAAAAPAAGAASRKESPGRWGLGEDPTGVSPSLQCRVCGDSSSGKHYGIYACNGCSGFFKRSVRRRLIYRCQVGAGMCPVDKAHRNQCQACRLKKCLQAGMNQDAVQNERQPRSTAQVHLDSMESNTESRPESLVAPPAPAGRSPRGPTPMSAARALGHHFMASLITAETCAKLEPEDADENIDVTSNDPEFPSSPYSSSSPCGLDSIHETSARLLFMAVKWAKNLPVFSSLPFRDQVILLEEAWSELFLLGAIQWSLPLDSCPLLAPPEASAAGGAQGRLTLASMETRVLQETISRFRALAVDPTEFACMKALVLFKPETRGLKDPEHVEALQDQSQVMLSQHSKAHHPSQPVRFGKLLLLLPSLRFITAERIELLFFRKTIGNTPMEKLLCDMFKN
# [8] = biological target: T2, Streptokinase A (Streptococcus pyogenes serotype M1, UniProt P10520); experiment: viability-normalized secreted streptokinase activity reduction – plasminogen activation absorbance, OD405, dose response (AID 1914); format: functional, Streptococcus pyogenes M1 GAS;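 also: secreted streptokinase activity via plasminogen activation per viability signal from cell pellet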
# T2 sequence (P10520 whole entry): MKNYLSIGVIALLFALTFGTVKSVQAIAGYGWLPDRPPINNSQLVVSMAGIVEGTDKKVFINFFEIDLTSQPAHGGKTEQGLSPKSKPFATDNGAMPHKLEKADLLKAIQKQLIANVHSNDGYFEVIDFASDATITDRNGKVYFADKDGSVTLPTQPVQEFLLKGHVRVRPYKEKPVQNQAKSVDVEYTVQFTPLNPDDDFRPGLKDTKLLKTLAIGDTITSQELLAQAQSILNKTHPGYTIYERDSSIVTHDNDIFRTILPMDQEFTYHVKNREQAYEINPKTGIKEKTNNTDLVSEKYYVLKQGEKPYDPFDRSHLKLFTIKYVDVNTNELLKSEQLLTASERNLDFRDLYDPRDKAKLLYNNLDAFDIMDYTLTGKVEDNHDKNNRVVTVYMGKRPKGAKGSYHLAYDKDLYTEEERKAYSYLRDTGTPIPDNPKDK
# [9] = alpha-synuclein stem-loop translation blockers – luminescence, H4 neuroglioblastoma cells, dose confirmation, confirmation (AID 2454); format: functional, cell-based;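 also: H4 neuroglioblastoma cells carrying an alpha-synuclein 5'UTR luciferase reporter; potency for inhibition of the luciferase signal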
# [10] = Luminescence-based dose response cell-based high throughput screening assay for cytotoxic compounds using the IEC-6 intestinal epithelial cell line. [Related pubchem assays: 1858 (Summary AID.), 1825 (Counterscreen.), 1907 (Confirmation screen.)]; format: functional
# [11] = alpha-synuclein stem-loop luciferase translation blockers – H4 neuroglioma cells, luminescence, confirmation (AID 1988); format: functional, cell-based
# [12] = test system: Streptococcus; experiment: GAS UMAA2166 growth inhibition – luminescence, BacTiterGlo, counter-screen for streptokinase expression inhibitor project, dose response (AID 1915); format: functional, organism-based;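 also: potency for reduction of bacterial viability or growth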
# [13] = luciferase reporter signal reduction – luminescence, H4-C neuroglioblastoma cells, dose response (AID 2458); format: functional, cell-based;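 also: H4 neuroglioblastoma cells stably carrying a luciferase reporter gene fusion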
# [14] = test system: Streptococcus sp. 'group A'; experiment: Streptococcus pyogenes SK(-)GAS viability under kanamycin – luminescence, BacTiterGlo, confirmation, counter-screen for streptokinase expression inhibitor project, dose response (AID 1900); format: functional, organism-based
# [15] = Luminescence Cell-Based Dose Confirmation HTS to Identify Inhibitors of Polyadenylation.; format: functional
# [16] = cells; format: functional
# [17] = biological target: T3, Coagulation factor XII (Homo sapiens, UniProt P00748); format: functional;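 also: activated factor XIIa alpha cleaving a fluorogenic AMC peptide substrate; inhibitor potency from loss of enzyme activity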
# T3 sequence (P00748 whole entry): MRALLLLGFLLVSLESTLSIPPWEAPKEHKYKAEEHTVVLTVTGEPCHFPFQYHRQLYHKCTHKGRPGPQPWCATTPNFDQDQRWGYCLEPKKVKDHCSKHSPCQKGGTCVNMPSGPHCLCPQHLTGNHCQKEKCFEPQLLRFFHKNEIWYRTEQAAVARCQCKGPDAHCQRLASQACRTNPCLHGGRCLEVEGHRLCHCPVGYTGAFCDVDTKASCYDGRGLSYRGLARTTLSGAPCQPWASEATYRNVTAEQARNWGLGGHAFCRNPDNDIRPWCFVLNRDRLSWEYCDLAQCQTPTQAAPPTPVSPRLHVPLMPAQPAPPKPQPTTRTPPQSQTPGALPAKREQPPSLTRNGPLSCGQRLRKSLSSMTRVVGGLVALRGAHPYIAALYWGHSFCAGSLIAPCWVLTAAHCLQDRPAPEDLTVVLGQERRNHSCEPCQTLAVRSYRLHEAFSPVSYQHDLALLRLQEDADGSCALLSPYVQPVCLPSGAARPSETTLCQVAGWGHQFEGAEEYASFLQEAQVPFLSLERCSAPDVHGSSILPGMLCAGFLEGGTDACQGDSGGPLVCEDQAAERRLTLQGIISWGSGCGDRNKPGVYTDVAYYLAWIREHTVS
# [18] = biological target: Genome polyprotein (dengue virus type 2, UniProt P29990); experiment: flavivirus cap methylation enzyme inhibition – biochemical, confirmation dose response, primary screen (AID 588689); format: functional
# [19] = biological target: Prothrombin (Homo sapiens, UniProt P00734); experiment: Thrombin 1536 HTS Dose Response Confirmation. [Related pubchem assays: 1046 (Thrombin 1536 HTS; hits were confirmed in this assay)]; format: functional
# [20] = biological target: Mothers against decapentaplegic homolog 3 (Homo sapiens, UniProt P84022); experiment: inhibitors of SMAD-driven TGF-beta signaling – dose response (AID 715); format: functional
# Chain of Mothers against decapentaplegic homolog 3 (P84022 whole entry): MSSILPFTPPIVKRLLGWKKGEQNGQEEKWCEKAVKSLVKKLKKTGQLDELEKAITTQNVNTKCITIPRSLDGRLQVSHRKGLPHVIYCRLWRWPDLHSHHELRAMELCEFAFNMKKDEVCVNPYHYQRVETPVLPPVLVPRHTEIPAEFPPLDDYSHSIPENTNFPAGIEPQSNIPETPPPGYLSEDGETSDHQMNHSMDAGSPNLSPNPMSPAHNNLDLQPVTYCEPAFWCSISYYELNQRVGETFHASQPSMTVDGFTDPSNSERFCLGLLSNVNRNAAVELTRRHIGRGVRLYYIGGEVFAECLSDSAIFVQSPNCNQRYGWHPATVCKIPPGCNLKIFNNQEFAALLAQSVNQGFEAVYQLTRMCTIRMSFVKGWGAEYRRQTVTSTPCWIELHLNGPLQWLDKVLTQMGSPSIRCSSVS
# [21] = test system: H9c2; experiment: cells; format: functional, cell-based; settings: Rattus norvegicus, H9c2, Myocardium;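 also: confirmatory concentration-response retest of ultra-high-throughput screening hits for modulation of myocardial damage; cell death induced by hydrogen peroxide oxidative stress; compound pretreatment for 60 min then peroxide exposure for 2 h; potency is for protecting the cells against peroxide damage rather than for killing them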
# [22] = biological target: Estrogen receptor beta (Homo sapiens, UniProt Q92731); experiment: blockers of SRC-3 recruitment to ERβ – biochemical, ELISA, streptavidin-HRP readout, orthogonal assay, confirmation (AID 1060)
# Chain of Estrogen receptor beta (Q92731 whole entry): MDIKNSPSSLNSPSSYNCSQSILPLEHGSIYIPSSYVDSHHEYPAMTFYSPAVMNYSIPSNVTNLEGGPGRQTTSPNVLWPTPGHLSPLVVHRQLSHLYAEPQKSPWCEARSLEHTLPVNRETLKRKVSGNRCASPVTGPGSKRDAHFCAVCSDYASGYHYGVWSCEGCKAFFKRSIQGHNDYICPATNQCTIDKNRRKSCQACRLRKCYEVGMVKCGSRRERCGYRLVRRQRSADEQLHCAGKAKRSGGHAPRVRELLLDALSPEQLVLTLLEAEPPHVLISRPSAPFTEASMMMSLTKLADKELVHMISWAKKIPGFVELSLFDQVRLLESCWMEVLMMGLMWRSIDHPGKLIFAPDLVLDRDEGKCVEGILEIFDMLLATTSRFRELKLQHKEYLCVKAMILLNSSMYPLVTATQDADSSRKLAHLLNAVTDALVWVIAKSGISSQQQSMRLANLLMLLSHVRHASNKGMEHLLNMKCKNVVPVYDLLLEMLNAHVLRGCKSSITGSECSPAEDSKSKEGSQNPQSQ
# [23] = biological target: Peroxisome proliferator-activated receptor gamma/Nuclear receptor coactivator 1 (Homo sapiens, UniProt P37231); experiment: TR-FRET dose response biochemical High Throughput Screening assay for agonists of the steroid receptor coactivator 1 (SRC-1) recruitment by the peroxisome proliferator-activated receptor gamma (PPAR gamma): non-selective agonists. [Related pubchem assays (depositor defined):AID1300, AID1808, AID504735, AID631]; format: protein assay
# [24] = biological target: Peroxisome proliferator-activated receptor gamma/Nuclear receptor coactivator 3 (Homo sapiens, UniProt P37231); experiment: TR-FRET dose response biochemical High Throughput Screening assay for agonists of the steroid receptor coactivator 3 (SRC-3) recruitment by the peroxisome proliferator-activated receptor gamma (PPAR gamma): non-selective agonists. [Related pubchem assays: 1301 (Confirmation screen.), 1048 (Primary screen.)]; format: functional
# [25] = biological target: Peroxisome proliferator-activated receptor gamma/Nuclear receptor coactivator 2 (Homo sapiens, UniProt P37231); experiment: TR-FRET dose response biochemical High Throughput Screening assay for agonists of the steroid receptor coactivator 2 (SRC-2) recruitment by the peroxisome proliferator-activated receptor gamma (PPAR gamma): non-selective agonists. [Related pubchem assays: 1297, 1032 ]; format: functional
# [26] = biological target: T4, Heat shock factor protein 1 (Mus musculus, UniProt P38532); experiment: enhancement of HSF1-driven luciferase signal – cell-based, NIH3T3, luminescence, dose retest, confirmation (AID 435004); format: functional;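 also: stress induced by proteasome inhibitor MG132 added 30 min after compound; luciferase reporter driven by HSF1 response element in NIH3T3 cells; actives raise luminescence as potentiators of the MG132 stress response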
# T4 sequence (P38532 whole entry): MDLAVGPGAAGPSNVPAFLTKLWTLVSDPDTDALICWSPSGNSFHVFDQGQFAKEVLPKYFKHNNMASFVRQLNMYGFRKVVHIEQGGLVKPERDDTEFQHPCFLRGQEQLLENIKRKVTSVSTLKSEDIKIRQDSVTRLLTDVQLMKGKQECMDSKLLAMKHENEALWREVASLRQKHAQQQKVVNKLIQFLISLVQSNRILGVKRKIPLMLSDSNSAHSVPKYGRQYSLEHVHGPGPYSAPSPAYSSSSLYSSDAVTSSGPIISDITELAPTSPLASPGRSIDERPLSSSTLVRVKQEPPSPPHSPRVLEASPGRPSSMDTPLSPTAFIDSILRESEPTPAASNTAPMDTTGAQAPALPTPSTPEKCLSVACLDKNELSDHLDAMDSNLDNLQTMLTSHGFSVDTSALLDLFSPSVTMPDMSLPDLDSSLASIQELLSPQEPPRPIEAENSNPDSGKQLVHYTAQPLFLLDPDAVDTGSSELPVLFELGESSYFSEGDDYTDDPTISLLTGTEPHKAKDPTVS
# [27] = biological target: T5, Neuropeptide Y receptor type 2 (Homo sapiens, UniProt P49146); format: functional, cell-based;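 also: HEK293 cells expressing the receptor and a CNG channel; stimulus was NPY near EC95 followed by isoproterenol to raise cAMP; antagonist potency measured as restoring cAMP signal that NPY suppresses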
# T5 sequence (P49146 whole entry): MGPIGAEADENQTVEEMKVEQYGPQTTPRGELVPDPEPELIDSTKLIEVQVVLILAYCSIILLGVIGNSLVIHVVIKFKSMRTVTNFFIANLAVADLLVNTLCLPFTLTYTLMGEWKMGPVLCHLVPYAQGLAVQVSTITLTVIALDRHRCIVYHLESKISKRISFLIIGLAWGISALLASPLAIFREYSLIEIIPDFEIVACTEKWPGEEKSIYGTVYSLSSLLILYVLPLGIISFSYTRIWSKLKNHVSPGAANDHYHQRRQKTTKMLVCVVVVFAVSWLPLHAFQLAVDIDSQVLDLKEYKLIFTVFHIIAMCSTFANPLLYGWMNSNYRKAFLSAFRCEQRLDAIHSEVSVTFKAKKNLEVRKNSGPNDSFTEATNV
# [28] = viability loss of HPDE-C7K cells – cell-based, fluorescence, HTS, primary screen (AID 431); format: functional; settings: Homo sapiens
# [29] = biological target: Heat shock protein HSP 90-alpha (Homo sapiens, UniProt P07900); format: functional, organism-based
# [30] = Potency on glucagon-like peptide 1 release, dose-response in NCI-H716 cell line, half maximal inhibitory concentration (AID 1117344); format: functional, cell-based
# [31] = biological target: T6, Aryl hydrocarbon receptor (Homo sapiens, UniProt P35869); settings: Potency;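 also: confirmatory quantitative high-throughput screen measuring activation of the AhR signaling pathway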
# T6 sequence (P35869 whole entry): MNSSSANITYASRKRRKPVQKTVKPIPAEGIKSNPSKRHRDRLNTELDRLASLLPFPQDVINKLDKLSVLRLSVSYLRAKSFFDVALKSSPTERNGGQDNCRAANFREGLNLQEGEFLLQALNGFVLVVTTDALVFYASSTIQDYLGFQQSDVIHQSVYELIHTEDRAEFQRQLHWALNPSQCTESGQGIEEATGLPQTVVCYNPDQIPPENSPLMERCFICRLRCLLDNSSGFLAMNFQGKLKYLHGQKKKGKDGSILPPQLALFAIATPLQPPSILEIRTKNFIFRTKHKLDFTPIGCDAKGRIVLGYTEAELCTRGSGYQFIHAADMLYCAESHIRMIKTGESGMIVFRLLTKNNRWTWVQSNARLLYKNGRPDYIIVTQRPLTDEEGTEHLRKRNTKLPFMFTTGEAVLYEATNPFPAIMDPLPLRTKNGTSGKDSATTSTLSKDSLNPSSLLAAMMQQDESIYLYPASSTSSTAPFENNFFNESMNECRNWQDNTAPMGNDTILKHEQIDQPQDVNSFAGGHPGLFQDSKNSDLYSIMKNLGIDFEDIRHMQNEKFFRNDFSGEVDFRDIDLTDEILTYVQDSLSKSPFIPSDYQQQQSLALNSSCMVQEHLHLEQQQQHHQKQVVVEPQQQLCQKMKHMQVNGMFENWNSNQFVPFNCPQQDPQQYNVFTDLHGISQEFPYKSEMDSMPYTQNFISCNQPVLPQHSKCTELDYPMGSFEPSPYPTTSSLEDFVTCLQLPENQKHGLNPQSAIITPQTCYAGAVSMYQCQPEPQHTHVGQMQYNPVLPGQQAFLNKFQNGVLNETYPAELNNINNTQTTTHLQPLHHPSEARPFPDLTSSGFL
# [32] = biological target: T7, Ubiquitin-conjugating enzyme E2 N (Homo sapiens, UniProt P61088); format: functional;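 also: Dose-response confirmation in a TR-FRET assay detecting UBC13-driven polyubiquitin chain formation, inhibition measured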
# T7 sequence (P61088 whole entry): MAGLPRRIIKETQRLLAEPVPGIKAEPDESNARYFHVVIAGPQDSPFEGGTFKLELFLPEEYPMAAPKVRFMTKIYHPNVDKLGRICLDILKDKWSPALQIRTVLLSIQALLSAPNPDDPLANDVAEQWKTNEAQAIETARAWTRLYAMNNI
# [33] = HPDE-C7 pancreatic duct cell viability loss – fluorescence, HTS (AID 430); format: functional, cell-based; settings: Homo sapiens
# [34] = glucagon-like peptide-1 release potency in STC-1, concentration-response, half-maximal inhibitory concentration in the STC-1 line (AID 1117345); format: functional, cell-based
structure (smiles),measurement,setting,value
CC(C)N1CCc2c(sc(NC(=O)c3ccc([N+](=O)[O-])o3)c2C(N)=O)C1,EC50,[1],496 nM (active)
same,IC50,[2],5.65 µM (active)
same,AC50,[3],1.16 µM (active)
same,EC50,[4],4.38 µM (active)
same,EC50,[5],< 100 nM (active)
same,IC50,[6],6.27 µM (active)
same,IC50,[7],4.58 µM (active)
same,EC50,[8],> 150 µM (not active)
same,EC50,[9],953 nM (active)
same,IC50,[10],1.32 µM (active)
same,EC50,[11],145 nM (active)
same,EC50,[12],8.99 µM (active)
same,EC50,[13],300 nM (active)
same,EC50,[14],3.19 µM (active)
COc1cccc2cc(-c3nc4ccccc4o3)c(=O)oc12,EC50,[15],> 120 µM (not active)
same,IC50,[16],14.9 µM (active)
Cc1ccc(S(=O)(=O)ON2C(=O)c3ccccc3C2=O)c(C)c1,IC50,[2],1.39 µM (active)
same,IC50,[17],8.48 µM (active)
same,IC50,[18],96.3 µM (active)
same,IC50,[6],1.35 µM (active)
same,IC50,[19],856 nM (active)
Cc1ccc(N2C(=O)CS/C2=C(\C(Cl)=C(Cl)Cl)[N+](=O)[O-])cc1,IC50,[20],27.7 µM (active)
same,IC50,[21],> 79 µM (inactive)
COC(=O)c1ccc(CSc2ncnc3c2oc2ccccc23)o1,IC50,[22],57.8 nM (not active)
same,IC50,[20],14.7 µM (active)
same,EC50,[23],29.1 µM (inactive)
same,EC50,[24],> 79.4 µM (not active)
same,EC50,[25],> 8.82 µM (not active)
same,EC50,[26],> 260 µM (inactive)
Cc1cc2c(cc1S(=O)(=O)N(C)c1ccccc1)n(C)c(=O)n2C,EC50,[15],> 120 µM (not active)
Clc1ccc(COC(Cn2ccnc2)c2ccc(Cl)cc2Cl)cc1 (stereo not drawn) [ECONAZOLE NITRATE],IC50,[27],8.02 µM (active)
same,EC50,[28],15.4 µM (active)
same,AC50,[29],267 nM (active)
same,IC50,[30],25.6 µM (inactive)
same,AC50,[31],56.2 µM (inconclusive)
same,IC50,[32],> 20 µM (inactive)
same,EC50,[33],15.9 µM (active)
same,IC50,[34],4.29 µM (active)
